Where a name gives a salt, the structure may show the parent alone. Read-outs that look alike come from different tables or passages of the source.
Key:
[1] = biological target: KRAS protein containing G12D mutation (Homo sapiens (Human), UniProt P01116, G12D); test: SOS-catalyzed nucleotide exchange assay (GNE), TR-FRET; type: biochemical; conditions: biotinylated KRAS G12D, SOS and GTP, 60-minute incubation
Method: Compounds are added to this complex and then after a 60-minute incubation time the mixture is treated with SOS and unlabeled GTP. Small molecule inhibitors stabilize the Bodipy-GDP complex whereas the untreated protein rapidly exchanges Bodipy-GDP for unlabeled GTP resulting in reduced TR-FRET signal.
This solution is referred to as biotinylated KRAS G12D stock solution.

[2] = tested on: AsPC-1 cells containing homozygous KRAS-G12D activating mutation; test: Cellular phospho-ERK assay with 10% FBS (Examples 107a-256); type: cell-based
Method: 5% CO2 for 2 hours. […] Assay plates were read on a EnVision Multimode Plate Reader (PerkinElmer) and the ratio of p-Erk vs total Erk in each well was used as the final readout.

[3] = Homo sapiens, ASPC1, 2 h, read-out: IC50 (nM) pERK (cell with FBS 10%), AsPC-1 cells, 10% fetal bovine serum, 2 hours, ratio of p-Erk vs total Erk
[4] = read-out: IC50 (nM) pERK (cell with FBS 10%), AsPC-1 cells, 10% fetal bovine serum, 2 hours, ratio of p-Erk vs total Erk

Sequence of KRAS protein containing G12D mutation (P01116 other isoform, or with tags, fused parts or gaps G12D (already in the parent)): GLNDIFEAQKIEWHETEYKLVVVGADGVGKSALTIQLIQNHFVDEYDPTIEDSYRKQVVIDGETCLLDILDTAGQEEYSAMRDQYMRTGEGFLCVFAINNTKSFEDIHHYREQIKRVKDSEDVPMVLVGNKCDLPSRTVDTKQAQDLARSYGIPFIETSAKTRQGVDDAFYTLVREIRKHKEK

| SMILES | IC50 [1] [nM] | IC50 [2, 3] [nM] | IC50 [2, 4] [nM] | IC50 ([2]; read-out: IC50 (nM) pERK (cell with FBS 10%), AsPC-1 cells, 10% fetal bovine serum, 2 hours, ratio of p-Erk vs total Erk, TFA) [nM] |
| --- | --- | --- | --- | --- |
| Cc1cc2[nH]ncc2c(-c2c(F)cc3c(N4CC5CCC(C4)N5)nc(OC[C@@]45CCCN4C[C@H](F)C5)nc3c2F)c1C(F)(F)F [Ex. 140, 4-((1R,5S)-3,8-diazabicyclo[3.2.1]octan-3-yl)-6,8-difluoro-2-(((2R,7aS)-2-fluorotetrahydro-1H-pyrrolizin-7a(5H)-yl)meth-oxy)-7-(6-methyl-5-(trifluoromethyl)-1H-indazol-4-yl)quin-azoline, TFA] | 3.88 | 113 |  |  |
| Cc1cc2[nH]ncc2c(-c2c(F)cc3c(N4C[C@H]5CC[C@@](C)(C4)N5)nc(OC[C@@]45CCCN4C[C@H](F)C5)nc3c2F)c1OC(F)(F)F (single isomer, unassigned) [Ex. 126a] | 8.59 |  | 1240 |  |
| C[C@]12CC[C@H](CN(c3nc(OC[C@@]45CCCN4C[C@H](F)C5)nc4c(F)c(-c5c(F)cc(F)c6oc(N)nc56)c(Cl)cc34)C1)N2 (single isomer, unassigned) [Ex. 170a] | 4.72 |  | 1380 |  |
| Cc1cc2[nH]nc(C#N)c2c(-c2c(F)cc3c(N4C[C@H]5CC[C@@H](C4)N5)nc(OC[C@@]45CCCN4C[C@H](F)C5)nc3c2F)c1OC(F)(F)Cl [compound 255, 4-(4-((1R,5S)-3,8-diazabicyclo[3.2.1]octan-3-yl)-6,8-difluoro-2-(((2R,7aS)-2-fluorotetrahydro-1H-pyrrolizin-7a(5H)-yl)methoxy)quinazolin-7-yl)-5-(chlorodifluoromethoxy)-6-methyl-1H-indazole-3-carbonitrile] | 0.79 | 58.9 |  |  |
| C[C@]12CCC(CN(c3nc(OC[C@@H]4CC[C@H]5CC(F)(F)CCN45)nc4c(F)c(-c5cc(O)cc6cccc(Cl)c56)c(F)cc34)C1)N2 (single isomer, unassigned) [Ex. 175a] | 738 | 6450 |  |  |
| C#Cc1cccc2cccc(-c3c(F)cc4c(N5CC6(C)CCC(C)(C5)N6)nc(OC[C@@]56CCCN5C[C@H](F)C6)nc4c3F)c12 (single isomer, unassigned) [Ex. 190b, TFA] | 72 |  |  | 5830 |
| C[C@]12CC[C@H](CN(c3nc(OCC4(CN5CCCC(O)(C(F)(F)F)C5)CC4)nc4c(F)c(-c5cc(O)cc6cccc(Cl)c56)c(F)cc34)C1)N2 (mixture of isomers) [Ex. 206, rac-1-((1-(((7-(8-chloro-3-hydroxynaphthalen-1-yl)-6,8-difluoro-4-((1S,5R)-1-methyl-3,8-diazabicyclo-[3.2.1]octan-3-yl)quinazolin-2-yl)oxy)methyl)cyclo-propyl)methyl)-3-(trifluoromethyl)piperidin-3-ol] | 1340 | 30000 |  |  |
| C[C@]12CCC(CN(c3nc(OC[C@@]45CCCN4C[C@H](F)C5)nc4c(F)c(-c5cc(O)cc6cc(F)cc(Cl)c56)c(F)cc34)C1)N2 (single isomer, unassigned) [Ex. 180b] | 744 |  | 14200 |  |
| Cc1nc(N)c(F)c(-c2c(F)cc3c(N4CC5CCC(C4)N5)nc(OC[C@@]45CCCN4C[C@H](F)C5)nc3c2F)c1C(F)(F)F (single isomer, unassigned) [Ex. 151b] | 21.6 |  | 278 |  |
| Cc1cc(N)nc(-c2c(F)cc3c(N4CC5CCC(C4)N5)nc(OC[C@@]45CCCN4C[C@H](F)C5)nc3c2F)c1C(F)(F)F (mixture of isomers) [Ex. 193, 6-(4-((1R,5S)-3,8-diazabicyclo[3.2.1]-octan-3-yl)-6,8-difluoro-2-(((2R,7aS)-2-fluorotetrahydro-1H-pyrrolizin-7a(5H)-yl)methoxy)quinazo-lin-7-yl)-4-methyl-5-(trifluoromethyl)pyr-idin-2-amine] | 10.3 | 187 |  |  |
| CC(O)(COc1nc(N2CC3CC[C@@](C)(C2)N3)c2cc(F)c(-c3cc(O)cc4cccc(Cl)c34)c(F)c2n1)CN1CC[C@@H](F)C1 (single isomer, unassigned) [Ex. 209] | 46.1 | 2910 |  |  |
| C#Cc1cccc2nc(N)cc(-c3c(F)cc4c(N5CC6CCC(C5)N6)nc(OC[C@@]56CCCN5C[C@H](F)C6)nc4c3F)c12 (single isomer, unassigned) [Ex. 203b] | 3.32 |  | 120 |  |
| C#Cc1cccc2cc(O)c(F)c(-c3c(F)cc4c(N5CC6CC[C@@](C)(C5)N6)nc(OC[C@@]56CCCN5C[C@H](F)C6)nc4c3F)c12 (single isomer, unassigned) [Ex. 192a] | 1.17 |  | 114 |  |
| Cc1cc2[nH]nc(C)c2c(-c2c(F)cc3c(N4CC5CCC(C4)N5)nc(OC[C@@]45CCCN4C[C@H](F)C5)nc3c2F)c1OC(F)(F)F (single isomer, unassigned) [Ex. 232b] | 5.9 |  | 155 |  |
| C#Cc1cccc2cc(N)nc(-c3c(F)cc4c(N5CC6CCC(C5)N6)nc(OC[C@@]56CCCN5C[C@H](F)C6)nc4c3F)c12 (single isomer, unassigned) [Ex. 148b] | 751 |  | 8550 |  |
| C[C@@]12CC[C@H](CN(c3nc(OC[C@@]45CCCN4C[C@H](F)C5)nc4c(F)c(-c5cccc6ccc(F)c(F)c56)c(F)cc34)C1)N2 [compound 197, 7-(7,8-difluoronaph-thalen-1-yl)-6,8-difluoro-2-(((2R,7aS)-2-fluorotetrahydro-1H-pyrrolizin-7a(5H)-yl)-methoxy)-4-((1S,5R)-1-methyl-3,8-diaza-bicyclo[3.2.1]octan-3-yl)quinazoline] | 52.4 | 4470 |  |  |
| C[C@]12CCC(CN(c3nc(OCC4(CN5CC6CCC(C5)O6)CC4)nc4c(F)c(-c5cc(O)cc6cccc(Cl)c56)c(F)cc34)C1)N2 (single isomer, unassigned) [Ex. 208] | 210 | 30000 |  |  |
| Cc1cc2[nH]nc(C)c2c(-c2c(F)cc3c(N4CC5CCC(C4)N5)nc(OC[C@@]45CCCN4C[C@H](F)C5)nc3c2F)c1C(F)(F)F (single isomer, unassigned) [Ex. 128a] | 1.28 |  | 43.4 |  |
| Cc1c(C(F)(F)F)c(-c2c(F)cc3c(N4CC5CCC(C4)N5)nc(OC[C@@]45CCCN4C[C@H](F)C5)nc3c2F)c2cn[nH]c2c1F (single isomer, unassigned) [Ex. 166b] | 4.4 |  | 152 |  |
| C[C@]12CC[C@H](CN(c3nc(OC[C@@H]4CCNC4)nc4c(F)c(-c5cc(O)cc6ccccc56)c(Cl)cc34)C1)N2 [Example 122, 4-(6-chloro-8-fluoro-4-((1S,5R)-1-methyl-3,8-diazabicyclo[3.2.1]octan-3-yl)-2-(((R)-pyrrolidin-3-yl)methoxy)quinazolin-7-yl)naphthalen-2-ol, TFA] | 964 | 30000 |  |  |
| C#Cc1cccc2cc3[nH]ncc3c(-c3c(F)cc4c(N5C[C@H]6CC[C@@](C)(C5)N6)nc(OC[C@@]56CCCN5C[C@H](F)C6)nc4c3F)c12 [Ex. 195, 4-(6,8-difluoro-2-(((2R, 7aS)-2-fluorotetra-hydro-1H-pyrrolizin-7a(5H)-yl)methoxy)-4-((1S,5R)-1-methyl-3,8-diazabicyclo[3.2.1]-octan-3-yl)quinazolin-7-yl)-5-ethynyl-1H-benzo[f]indazole] | 4.36 | 79.6 |  |  |
| C[C@]12CC[C@H](CN(c3nc(OCC45CCCN4CCC(F)(F)C5)nc4c(F)c(-c5cc(O)cc6cccc(Cl)c56)c(F)cc34)C1)N2 (single isomer, unassigned) [Example 116b] | 473 | 14000 |  |  |
| Cc1cc2[nH]nc(C)c2c(-c2c(F)cc3c(N4CC5CCC(C4)N5)nc(OC[C@@]45CCCN4C[C@H](F)C5)nc3c2F)c1OC(F)(F)F (single isomer, unassigned) [Ex. 232a] | 932 |  | 30000 |  |
| Cc1nc(N)c(C)c(-c2c(F)cc3c(N4CC5CCC(C4)N5)nc(OC[C@@]45CCCN4C[C@H](F)C5)nc3c2F)c1C(F)(F)F (single isomer, unassigned) [Ex. 191a] | 26.5 |  | 288 |  |
| Oc1cc(-c2c(F)cc3c(N4CC5CCC(C4)N5)nc(OC[C@@]45CCCN4C[C@H](F)C5)nc3c2F)c2c(Cl)cccc2c1 (single isomer, unassigned) [Ex. 160a] | 3.3 |  | 882 |  |
| C[C@]12CC[C@H](CN(c3nc(OC[C@@]45CCCN4C[C@H](F)C5)nc4c(F)c(-c5cc(N)c(F)c6cccc(Cl)c56)c(F)cc34)C1)N2 (single isomer, unassigned) [Ex. 163a] | 47.5 |  | 2270 |  |
| Cc1cc2[nH]nc(C#N)c2c(-c2c(F)cc3c(N4C[C@H]5CC[C@@H](C4)N5)nc(OC[C@@]45CCCN4C[C@H](F)C5)nc3c2F)c1C(F)(F)F (single isomer, unassigned) [Ex. 227a] | 190 |  | 1520 |  |
| Cc1cc(N)nc(-c2c(Cl)cc3c(N4C[C@H]5CC[C@@](C)(C4)N5)nc(OC[C@@]45CCCN4C[C@H](F)C5)nc3c2F)c1C(F)(F)F [Ex. 238a, 6-(6-chloro-8-fluoro-2-(((2R,7aS)-2-fluorotetrahydro-1H-pyrrolizin-7a(5H)-yl)methoxy)-4-((1S,5R)-1-methyl-3,8-diazabicyclo[3.2.1]octan-3-yl)quinazolin-7-yl)-4-methyl-5-(trifluoromethyl)pyridin-2-amine] | 25.7 | 1590 |  |  |
| COCCNC[C@@]1(COc2nc(N3CC4CC[C@@](C)(C3)N4)c3cc(F)c(-c4c(C(F)(F)F)c(C)cc5[nH]ncc45)c(F)c3n2)CC1(F)F (single isomer, unassigned) [Ex. 213] | 4460 | 25600 |  |  |
| Nc1nc2c(-c3c(Cl)cc4c(N5CC6CCC(C5)N6)nc(OC[C@@]56CCCN5C[C@H](F)C6)nc4c3F)c(F)cc(F)c2o1 (single isomer, unassigned) [Ex. 133a] | 61.4 |  | 3470 |  |
